From patent US8153787B2 (priority 2005, dated 2012)
Values after ≈ are worked out from the molar mass of the structure shown. Like-named read-outs stand apart in the source and are kept apart here.

How the values were obtained:
[1] = tested on: Herpes simplex virus-2 (G); assay type: cell-based
HEL cells = details: human
[2] = tested on: primate polyomavirus (SV40); assay: microbe, parasite or virus in culture; assay type: cell-based, simian polyomavirus SV40; details: Polyomavirus sp., BSC-1, in Primates
Vaccinia virus [3] = assay type: cell-based
[4] = tested on: vaccinia virus (Lederle strain); assay: microbe, parasite or virus in culture; assay type: cell-based; details: Orthopoxvirus vaccinia, HEL
pox tail lesions = assay: Pox tail lesion model; assay type: in vivo
in vitro [5] = details: mouse
SiHa cells (HPV-16) = assay: Human cervical carcinoma (SiHa) xenografts in athymic nude mice; assay type: in vivo; details: 5 weeks intratumoral treatment
Procedure: (§1) Adult animals were injected subcutaneously with 5×10^6 SiHa cells, a human cervical carcinoma cell line which harbors integrated human papillomavirus (HPV-16). Once the tumors were established (approximately after 1 week), the mice were divided in several groups, the tumor size for each mouse was determined, and treatment with placebo (PBS) or the test compounds was started. The test solutions were administered intratumorally at a volume of 50 μl. Mice were treated once a day, 5 times a week for a period of 5 weeks. Every week, the tumor size for each animal was measured with a caliper in two perpendicular dimensions and tumor size was calculated by multiplying the two measured diameters.
as §1, with “s.c.” for “subcutaneously”, “intratumorally (i.t.)” for “intratumorally”

[6] = tested on: herpes simplex virus type 1 (HSV-1); assay: microbe, parasite or virus in culture; assay type: cell-based; details: Human alphaherpesvirus 1, HEL, read-out: EC50 HSV-1 (Kos strain)
[7] = tested on: Varicella-Zoster Virus (VZV); assay: microbe, parasite or virus in culture; assay type: cell-based; details: for EC50: Human alphaherpesvirus 3, HEL
[8] = tested on: Herpes simplex virus-1 (KOS and TK- KOS ACVr); assay type: cell-based
Vaccinia virus [9] = assay: organism not typed; assay type: cell-based; details: for EC50: HEL
[10] = tested on: Vaccinia virus (Western Reserve) and recombinant viruses harboring the A314T, A684V or A314T+A684V mutations; assay type: cell-based
murine polyomavirus = assay: microbe, parasite or virus in culture; assay type: cell-based; details: Alphapolyomavirus muris, UC1, UC1B
Cowpox virus (Brighton) = assay type: cell-based
[11] = tested on: Vaccinia virus (Lederle, Lister, W R and Copenhagen); assay type: cell-based
MOLT-3 cells = details: human
[12] = tested on: human cervical carcinoma xenografts (HeLa, CaSki cells); assay: Human cervical carcinoma xenografts (HeLa, CaSki) in athymic nude mice, FIG. 12; assay type: in vivo; details: 5 and 10 mg/mL doses, intratumoral
Procedure: as §1, with “FIGS. 12 A and B show the activity of (S)-HPMP-5-azacytosine compared to (S)-HPMPC against human papillomavirus in human cervical carcinoma xenografts in athymic nude mice. (A) Adult” for “Adult”, “HeLa” for “SiHa”, “diameters. […] Once the tumors were established (approximately after 1 week), the mice were divided in several groups, the tumor size for each mouse was determined, and treatment with placebo (PBS) or the test compounds was started. […] Every week, the tumor size for each animal was measured with a caliper in two perpendicular dimensions and tumor size was calculated by multiplying the two measured diameters.” for “diameters.”

HSV-2 (Lyons) = tested on: HSV-2 (Lyons); design: species or system mice; details: mouse, in vivo, sc
in vitro [13] = details: human
HSV-1 (Kos strain) = assay: microbe, parasite or virus in culture; assay type: cell-based, Herpes simplex virus type 1; details: Human alphaherpesvirus 1, HEL
[14] = mouse, in vivo
HSV-1 (KOS) = tested on: HSV-1 (KOS); design: species or system mice; details: mouse, in vivo, sc

Nc1ncn(C[C@@H](CO)OCP(=O)(O)O)c(=O)n1 [Compound 3, (S)-1-[3-hydroxy-2-(Phosphonomethoxy)propyl]-5-azacytosine]
activity against Herpes simplex virus-2 (G) in E6SM cell cultures [1]: significant activity | Toxicity MCC (microscop) (HEL cells): >100 µg/mL | EC50 ([2]; read-out: antiviral activity (EC50) SV40 PML-1 strain EK): 3.19 µg/mL (≈ 11.4 µM) | EC50 ([2]; read-out: antiviral activity (EC50) SV40 PML-2 strain DAR): 3.81 µg/mL (≈ 13.6 µM) | EC50 ([2]; read-out: antiviral activity (EC50) SV40 strain A2895): 3.22 µg/mL (≈ 11.5 µM) | activity against Vaccinia virus in E6SM cell cultures (Vaccinia virus [3]): significant activity | EC50 ([4]; 2 h, read-out: EC50 Vaccinia (Lederle strain), Treatment from 2 h till end of experiment): 2 µg/mL (≈ 7.14 µM) | EC50 ([4]; read-out: EC50 Vaccinia (Lederle strain), Pretreatment (−16 hours)): 1.59 µg/mL (≈ 5.67 µM) | EC50 ([4]; read-out: EC50 Vaccinia (Lederle strain), Treatment 2-4 hours): 5 µg/mL (≈ 17.8 µM) | EC50 ([4]; read-out: EC50 Vaccinia (Lederle strain), Treatment 2-6 hours): 3.98 µg/mL (≈ 14.2 µM) | EC50 ([4]; read-out: EC50 Vaccinia (Lederle strain), Treatment 2-8 hours): 6.3 µg/mL (≈ 22.5 µM) | number of lesions on day 7 (pox tail lesions): 0 | CC50 (in vitro [5]): 109 µg/mL (≈ 391 µM) | tumor size, SiHa xenografts (SiHa cells (HPV-16)): did not increase | EC50 [6]: 0.61 µg/mL (≈ 2.18 µM) | activity against VZV (Oka, YS, YS-R and 07-1) in HEL cells [7]: significant activity | EC50 ([7]; read-out: EC50 VZV 07/1 strain (HEL cells)): 0.019 µg/mL (≈ 0.0678 µM) | EC50 ([7]; read-out: EC50 VZV OKA strain (HEL cells)): 0.027 µg/mL (≈ 0.0964 µM) | EC50 ([7]; read-out: EC50 VZV YS strain (HEL cells)): 0.039 µg/mL (≈ 0.139 µM) | EC50 ([7]; read-out: EC50 VZV YS-R strain (HEL cells)): 0.015 µg/mL (≈ 0.0535 µM) | activity against Herpes simplex virus-1 (KOS and TK- KOS ACVr) in E6SM cell cultures [8]: significant activity | activity against Vaccinia virus (Lederle, Lister, W R and Copenhagen) in HEL cells (Vaccinia virus [9]): significant activity | EC50 (Vaccinia virus [9]; read-out: EC50 Vaccinia Virus Lister): 1.69 µg/mL (≈ 6.03 µM) | EC50 (Vaccinia virus [9]; Orthopoxvirus vaccinia, read-out: EC50 Vaccinia Virus Copenhagen): 2.26 µg/mL (≈ 8.07 µM) | EC50 (Vaccinia virus [9]; Orthopoxvirus vaccinia, read-out: EC50 Vaccinia Virus Lederle): 1.7 µg/mL (≈ 6.07 µM) | EC50 (Vaccinia virus [9]; Orthopoxvirus vaccinia, read-out: EC50 Vaccinia Virus WR): 2.45 µg/mL (≈ 8.74 µM) | EC50 Vaccinia virus (Western Reserve) wild-type [10]: 1.58 µg/mL (≈ 5.64 µM) | EC50 recombinant vaccinia virus 314 + 684 [10]: 10.8 µg/mL | EC50 recombinant vaccinia virus 684 [10]: 6.88 µg/mL | EC50 recombinant vaccinia virus A314T [10]: 4.1 µg/mL | EC50 (murine polyomavirus; read-out: antiviral activity (EC50) 2PTA2): 3.35 µg/mL (≈ 12 µM) | EC50 (murine polyomavirus; read-out: antiviral activity (EC50) LID-1): 4.98 µg/mL (≈ 17.8 µM) | EC50 (murine polyomavirus; read-out: antiviral activity (EC50) MN/RDE Toronto): 1.94 µg/mL (≈ 6.92 µM) | EC50 (murine polyomavirus; read-out: antiviral activity (EC50) PTA): 3.89 µg/mL (≈ 13.9 µM) | activity against Cowpox virus (Brighton) in PHKs (Cowpox virus (Brighton)): significant activity | activity against Vaccinia virus (Lederle, Lister, W R and Copenhagen) in PHKs [11]: significant activity | Toxicity MCC (microscopy), MOLT-3 cells (MOLT-3 cells): 16 µg/mL | growth of tumors, human cervical carcinoma (FIG. 12) [12]: inhibit the growth of tumors | survival rate, HSV-2 (Lyons) model (HSV-2 (Lyons)): 100% | CC50 (in vitro [13]): > 100 µg/mL | EC50 (HSV-1 (Kos strain); 2 h, read-out: EC50 HSV-1 (Kos strain), Treatment from 2 h till end of experiment): 0.16 µg/mL (≈ 0.571 µM) | EC50 (HSV-1 (Kos strain); read-out: EC50 HSV-1 (Kos strain), Pretreatment (−16 hours)): 0.25 µg/mL (≈ 0.892 µM) | EC50 (HSV-1 (Kos strain); read-out: EC50 HSV-1 (Kos strain), Treatment 2-4 hours): 1 µg/mL (≈ 3.57 µM) | EC50 (HSV-1 (Kos strain); read-out: EC50 HSV-1 (Kos strain), Treatment 2-6 hours): 0.37 µg/mL (≈ 1.32 µM) | EC50 (HSV-1 (Kos strain); read-out: EC50 HSV-1 (Kos strain), Treatment 2-8 hours): 0.32 µg/mL (≈ 1.14 µM) | mean body weights of the mice [14]: normal pattern | survival rate, HSV-1 (KOS) mice (HSV-1 (KOS)): 100%
